From patent US20230339878A1, “SLC26A3 INHIBITORS AND USE THEREOF” (THE REGENTS OF THE UNIVERSITY OF CALIFORNIA, priority 2018, published 2023)
Entries after “also recorded” stand apart in the source; their conditions may differ.

Columns and labels:
Assay type in all cases: in vivo
[1] = system: loperamide-treated wild-type mice; experiment: Loperamide-induced constipation model in wild-type mice
Description: Female CD1 mice (age 8-10 weeks) were administered loperamide (0.3 mg/kg, intraperitoneally, Sigma-Aldrich) to produce constipation. Compound A1 (DRAinh-A250) (5 mg/kg, in saline containing vehicle (5% DMSO and 10% Kolliphor HS 15; Sigma-Aldrich)), tenapanor (5 mg/kg, in vehicle), both compounds (5 mg/kg each, in vehicle), or vehicle alone were administered by oral gavage 1 hour before loperamide. After loperamide injection, mice were placed individually in metabolic cages with ad libitum access to food and water. Stool samples were collected for 3 h, and total stool weight and number of fecal pellets were quantified. To measure stool water content, stool samples were dried at 80° C. for 24 h and water content was calculated as [wet weight-dry weight]/wet weight. Similar studies were done in cystic fibrosis (CF) mice (ΔF508 homozygous) lacking functional CFTR.
Constipation Model in MiceDRAinh-A260 and DRAinh-A270 were tested in a loperamide-induced constipation model in mice. Female CD1 mice (age 8-10 weeks) were administered loperamide (0.3 mg/kg, intraperitoneally, in 5% ethanol in PBS, 0.1 mg/mL final concentration) to produce constipation and vehicle in control mice. DRAinh-A260 (5 mg/kg, in saline with 5% DMSO and 10% Kolliphor HS 15) or DRAinh-A270 (1, 3 or 10 mg/kg, in PBS with 5% DMSO and 20% (2- hydroxypropyl)-β-cyclodextrin) or vehicle alone were administered by oral gavage 1 hour before loperamide (FIG. 11A). After loperamide injection, mice were placed individually in metabolic cages with free access to food and water. Stool samples were collected for 3 hours, and total stool weight and number of fecal pellets were quantified. To measure stool water content, stool samples were dried at 80° C. for 24 hours and water content was calculated as [wet weight-dry weight]/wet weight.

[2] = Pharmacokinetics in mice, serum LC/MS; settings: for oral bioavailability / bioavailability: 5 mg/kg (A1, A260) or 10 mg/kg (A270), mice; for bioavailability: mouse, serum, po, n=3, read-out: oral bioavailability (mean±SEM)
Description: Pharmacokinetics of the Compound A1(DRAinh-A250) and analogs (DRAinh-A260 and DRAinh-A270) was determined in mice. After single dose intraperitoneal or oral administration (5 mg/kg for Compound A1 and DRAinh-A260, 10 mg/kg for DRAinh-A270), blood samples were collected via retro-orbital puncture at different time points and serum was separated by centrifugation. Compound concentrations were measured in serum using LC/MS. FIGS. 10A, 10B, 10C show the respective serum concentration of Compound A1 (FIG. 10A), DRAinh-A260 (FIG. 10B) and DRAinh-A270 (FIG. 10C) after single oral or intraperitoneal administration at zero time (n=3 mice per compound per administration route). Compound A1 had predicted therapeutic levels for at least 24 hours after single dose oral or intraperitoneal administration. […] (mean±SEM): 53.9±6.5% for Compound A1, 16.4±6.6% for DRAinh-A260, and 39.3±3.5% for DRAinh-A270.

[3] = system: acute hyperoxaluria in mice; experiment: Acute hyperoxaluria induced by oral sodium oxalate
Description: The efficacy of Compound A1 (DRAinh-A250) and DRAinh-A270 were tested in models of acute hyperoxaluria and oxalate nephropathy in mice. To induce acute hyperoxaluria, mice were given sodium oxalate ([…]) with or without 5 mg/kg Compound A1 by oral gavage at zero time and urine was collected for the next 4 hours in metabolic cages. A group of mice were used as controls and treated with vehicle only (no sodium oxalate or DRA inhibitor) and their urine was collected for 4 hours in metabolic cages as well. Using the 4 hour urine samples, urine oxalate/creatinine ratio was determined to quantify urinary oxalate excretion.
Similar experiments were performed for DRAinh-A270 in the acute hyperoxaluria model. For these experiments mice were first placed in metabolic cages to collect urine for 4 hours without any treatment. After this initial collection, the mice were treated with DRAinh-A270 (10 mg/kg) or vehicle intraperitoneally, and given sodium oxalate ([…], in water) by oral gavage at zero time. Urine was collected for the next 4 hours in metabolic cages.

Row | SMILES | three-hour stool weight, number of pellets and stool water content ([1]; 5 mg/kg oral gavage 1 hour before loperamide, wild-type mice) | oral bioavailability [2] [%] | time with predicted therapeutic serum levels ([2]; 5 mg/kg single dose oral or intraperitoneal) | bioavailability [2] [%] | 4 hour urine oxalate/creatinine ratio (hyperoxaluria) ([3]; 5 mg/kg oral gavage with sodium oxalate 1 µmol/kg) | stool parameters / diarrhea in control mice ([1]; 10 mg/kg oral, mice not treated with loperamide) | stool weight, pellet number and water content, dose-dependence ([1]; 1, 3 or 10 mg/kg oral gavage 1 hour before loperamide) | time with predicted therapeutic serum concentrations ([2]; 10 mg/kg single dose oral or intraperitoneal) | 4-hour urine oxalate/creatinine ratio (hyperoxaluria) ([3]; 10 mg/kg intraperitoneally, sodium oxalate 2.5 µmol/kg oral)
1 | Cc1c(CC(=O)O)c(=O)oc2c(C)c(OCc3cccc(Br)c3)ccc12 [Compound A1] | partially prevented; also recorded: comparably reduced signs of constipation; also recorded: reduces loperamide-induced constipation | 54 | at least 24 hours | 53.9 ± 6.5 | largely prevented hyperoxaluria |  |  |  | 
2 | Cc1c(CC(=O)O)c(=O)oc2c(C)c(OCc3cccc(I)c3)ccc12 [DRAinh-A270] |  | 39 |  | 39.3 ± 3.5 |  | did not affect stool parameters or cause diarrhea | dose-dependence in normalizing stool weight and pellet number, and water content; also recorded: normalizes stool water content even at low doses | for several days | largely prevented hyperoxaluria
